Measured values: patent EP4269424A1, “NOVEL ANTIVIRAL COMPOUNDS AND USE THEREOF” (priority 2022, dated 2023)
No end group written: not given here.

Key:
G3BP1 = type: binding, human

| Compound | Kd (G3BP1) | cell viability (Vero E6 cells) |
| --- | --- | --- |
| CC[C@H](C)[C@H](NC(=O)CNC(=O)[C@H](CO)NC(=O)[C@H](C)NC(=O)[C@H](CC(C)C)NC(=O)[C@H](C)NC(=O)[C@H](CCC(=O)O)NC(=O)[C@H](Cc1c[nH]cn1)NC(=O)[C@H](CCC(=O)O)NC(=O)[C@H](CC(=O)O)NC(=O)[C@H](Cc1ccccc1)NC(=O)[C@H](CC(=O)O)NC(=O)CNC(=O)[C@H](Cc1ccccc1)NC(=O)[C@@H](NC(=O)[C@@H](N)CC(C)C)[C@@H](C)O)C(=O)N[C@H](C(=O)N[C@@H](Cc1ccccc1)C(=O)NCC(=O)N[C@@H](CC(=O)O)C(=O)N[C@@H](Cc1ccccc1)C(=O)N[C@@H](CC(=O)O)C(=O)N[C@@H](CC(=O)O)C(=O)N[C@@H](Cc1c[nH]c2ccccc12)C(=O)O)[C@@H](C)O [G3BPi spacer2] | 4.4 µM |  |
| CC[C@H](C)[C@H](NC(=O)CNC(=O)[C@H](CO)NC(=O)[C@H](C)NC(=O)[C@H](CC(C)C)NC(=O)[C@H](C)NC(=O)[C@H](CC(=O)O)NC(=O)[C@@H](NC(=O)[C@H](CCC(=O)O)NC(=O)[C@H](Cc1c[nH]cn1)NC(=O)[C@H](CCC(=O)O)NC(=O)[C@H](CC(=O)O)NC(=O)[C@H](Cc1ccccc1)NC(=O)[C@H](CC(=O)O)NC(=O)CNC(=O)[C@H](Cc1ccccc1)NC(=O)[C@@H](NC(=O)[C@H](CC(C)C)NC(=O)[C@H](CCCNC(=N)N)NC(=O)[C@H](CCCNC(=N)N)NC(=O)[C@H](CCCNC(=N)N)NC(=O)[C@H](CCC(N)=O)NC(=O)[C@H](CCCNC(=N)N)NC(=O)[C@H](CCCNC(=N)N)NC(=O)[C@H](CCCCN)NC(=O)[C@H](CCCCN)NC(=O)[C@H](CCCNC(=N)N)NC(=O)CNC(=O)[C@@H](N)Cc1ccc(O)cc1)[C@@H](C)O)C(C)C)C(=O)N[C@H](C(=O)N[C@@H](Cc1ccccc1)C(=O)NCC(=O)N[C@@H](CC(=O)O)C(=O)N[C@@H](Cc1ccccc1)C(=O)N[C@@H](CC(=O)O)C(=O)N[C@@H](CC(=O)O)C(=O)O)[C@@H](C)O [G3BPi WT] |  | not affected |
| LTFGDFTGSTGSTGSTGITFGDFDDW [G3BPi spacer3] | 2.4 µM |  |
